Measured values: US20230263811A1, “APPLICATION OF C[…] TREATMENT OF CORONAVIRUS INFECTIONS” (ACADEMY OF MILITARY MEDICAL SCIENCES, priority 2020, published 2023)

What was measured:
Format in all cases: cell-based
[1] = Cytotoxicity test of drug (CCK-8 kit); conditions: African green monkey, Vero E6 cells
Description: (§1) The detection of the drug cytotoxicity was performed using CCK-8 kit (Beoytime). Specific steps were as follows:
(§2) 1) 1×10^4 Vero E6 (ATCC) cells were placed in a 96-well plate and incubated at 37° C. for 8 hours.
(§3) 2) The drug was diluted with DMSO to an appropriate concentration of mother liquor, and then diluted with MEM medium (purchased from Gibco, Catalog No. 10370021) containing 2% FBS (purchased from Gibco, Catalog No. 16000044) to the same concentration as that for the drug treatment. The original medium in the 96-well plate was discarded, 100 μL of drug-containing MEM medium was added to the cells, and three replicate wells were prepared for each concentration. Negative control (vehicle group, DMSO and medium were added to the cell wells, without adding drug) and blank control (DMSO and medium were added to the wells, without cells) were set up. After the drug was added, the cells were cultured at 37° C. for 48 hours.
(§4) 3) 20 μL of CCK-8 solution (Beoytime) was added to the well to be tested, mixed gently, without generating bubbles, and continuously incubated at 37° C. for 2 hours. OD450 was read on a microplate reader (purchased from Molecular Devices, Model: SpectraMax M5), and cell viability was calculated:
(§5) Cell activity (%)=(A(drug treatment group)−A(blank control))/(A(vehicle control)−A(blank control))=100%
(§6) wherein A was the reading of the microplate reader.

Vero E6 cells = assay: Cytotoxicity test of drug (CCK-8 kit); conditions: for Cell viability: Vero E6, 48 h
Description: as §1, §2, §3, §4, §5, §6

SARS-CoV-2 = assay: Reduction of viral nucleic acid load of Vero E6 cells infected by SARS-CoV-2 (qRT-PCR of supernatant); conditions: for Viral genome copy number (MOI = 0.05): infected supernatant, 48 h, vehicle 2215912896 ± 388319129

## C=C(C)[C@@H]1CCC(C)=C[C@H]1c1c(O)cc(CCCCC)cc1O [cannabidiol, (−)-2-[(3R,4R)-p-mentha-1,8-dien-3β-yl]-5-pentylresorcinol]
[1]
  CC50 at 48 h: 4100 nM
Vero E6 cells; 0.78 μM
  Cell viability: 73.45 ± 7.48%
Vero E6 cells; 1.56 μM
  Cell viability: 74.22 ± 13.42%
Vero E6 cells; 3.13 μM
  Cell viability: 58.45 ± 5.30%
Vero E6 cells; 6.25 μM
  Cell viability: 60.07 ± 6.01%
Vero E6 cells; 12.5 μM
  Cell viability: 50.01 ± 8.40%
Vero E6 cells; 25 μM
  Cell viability: 38.39 ± 5.70%
Vero E6 cells; 50 μM
  Cell viability: 22.85 ± 18.47%
Vero E6 cells; 100 μM
  Cell viability: 8.87 ± 3.59%
Vero E6 cells; concentrations of 1.56 μM and 0.78 μM
  Change of cell viability: did not change the cell viability
SARS-CoV-2; 0.04 μM
  Viral genome copy number (MOI = 0.05): 1853011000 ± 279114748
SARS-CoV-2; 0.12 μM
  Viral genome copy number (MOI = 0.05): 1860569042 ± 365350110
SARS-CoV-2; 0.37 μM
  Viral genome copy number (MOI = 0.05): 1224296104 ± 183149682
SARS-CoV-2; 1.11 μM
  Viral genome copy number (MOI = 0.05): 877127896 ± 122398434
SARS-CoV-2; 3.33 μM
  Viral genome copy number (MOI = 0.05): 668555500 ± 83251338
SARS-CoV-2; 48 h after infection of vero E6 cells with SARS-CoV-2 (FIG. 1)
  Inhibition of viral RNA load on cells: the inhibitory activity was dose-dependent
SARS-CoV-2; Severe acute respiratory syndrome coronavirus 2, Vero C1008, Vero E6 cells, read-out: EC50 against SARS-CoV-2
  EC50: 620 nM
SARS-CoV-2; concentrations of 10 μM, 3.3 μM, 1.1 μM and 0.37 μM
  Inhibition of replication of the SARS-CoV-2 virus genome in the infected supernatant: could effectively inhibit the replication
